pIC50: −log10 of the molar value.
Target: T1, hrCXCR2 (Homo sapiens, UniProt P25025)
T1 construct: expressed in transfected cells; host or cells: HEK 293 cells (ECACC No. 85120602), membranes of the highest expressing clone
T1 sequence (P25025 1-360): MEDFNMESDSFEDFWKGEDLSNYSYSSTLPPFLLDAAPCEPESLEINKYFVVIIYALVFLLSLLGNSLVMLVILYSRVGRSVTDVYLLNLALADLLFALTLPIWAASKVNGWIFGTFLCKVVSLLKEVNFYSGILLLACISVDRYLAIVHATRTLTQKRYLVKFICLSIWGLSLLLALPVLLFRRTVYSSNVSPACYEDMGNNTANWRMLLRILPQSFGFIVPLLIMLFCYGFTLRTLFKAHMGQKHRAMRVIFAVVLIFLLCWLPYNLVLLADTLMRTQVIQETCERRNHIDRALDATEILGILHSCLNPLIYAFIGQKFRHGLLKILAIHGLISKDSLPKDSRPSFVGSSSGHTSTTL
Test: Ligand binding assay, [125I]IL-8 displacement from membranes of HEK 293 cells expressing hrCXCR2
Settings: [125I]IL-8 (~50 pM), HEK 293 hrCXCR2 membranes, 1.5 hours at room temperature
Excerpt: [^125I]IL-8 (human, recombinant) was purchased from Amersham, U.K. with a specific activity of 2,000 Ci/mmol. All other chemicals were of analytical grade. High levels of hrCXCR2 were expressed in HEK 293 cells (human embryo kidney 293 cells ECACC No. 85120602) (Lee et al. (1992) J. Biol. Chem. 267 pp16283-16291). hrCXCR2 cDNA was amplified and cloned from human neutrophil mRNA. The DNA was cloned into PCRScript (Stratagene) and clones were identified using DNA. The coding sequence was sub-cloned into the eukauyotic expression vector RcCMV (Invitrogen). Plasmid DNA was prepared using Quiagen Megaprep 2500 and transfected into HEK 293 cells using Lipofectamine reagent (Gibco BRL). Cells of the highest expressing clone were harvested in phosphate-buffered saline containing 0.2% (w/v) ethylenediaminetetraacetic acid (EDTA) and centrifuged (200 g, 5 min.). The cell pellet was resuspended in ice cold homogenisation buffer [10 mM HEPES (pH 7.4), 1 mM dithiothreitol, 1 mM EDTA and a panel of protease inhibitors (1 mM phenyl methyl sulphonyl fluoride, 2 μg/ml soybean trypsin inhibitor, 3 mM benzamidine, 0.5 μg/ml leupeptin and 100 μg/ml bacitracin)] and the cells left to swell for 10 minutes. The cell preparation was disrupted using a hand held glass mortar/PTFE pestle homogeniser and cell membranes harvested by centrifugation (45 minutes, 100,000 g, 4° C.). The membrane preparation was stored at −70° C. in homogenisation buffer supplemented with Tyrode's salt solution (137 mM NaCl, 2.7 mM KCl, 0.4 mM NaH2PO4), 0.1% (w/v) gelatin and 10% (v/v) glycerol.
All assays were performed in a 96-well MultiScreen 0.45 μm filtration plates (Millipore, U.K.). Each assay contained ˜50 pM [^125I]IL-8 and membranes (equivalent to ˜200,000 cells) in assay buffer [Tyrode's salt solution supplemented with 10 mM HEPES (pH 7.4), 1.8 mM CaCl2, 1 mM MgCl2, 0.125 mg/ml bacitracin and 0.1% (w/v) gelatin]. […] The backing plate was removed from the MultiScreen plate assembly, the filters dried at room temperature, punched out and then counted on a Cobra γ-counter.

pIC50 | Structure (SMILES)
6.10 | C[C@H](CO)Nc1cc(O)nc(SCc2cccc(Cl)c2)n1 [Example 3, 2-[(3-Chlorobenzyl)thio]-6-{[(1R)-2-hydroxy-1-methylethyl]amino}-4-pyrimidinol]
7.00 | C[C@H](CO)Nc1nc(SCc2cccc(F)c2F)nc(O)c1SCc1ncon1 [Example 26, 2-[[(2,3-Difluorophenyl)methyl]thio]-6-[[(1R)-2-hydroxy-1-methylethyl]amino]-5-[(1,2,4-oxadiazol-3-ylmethyl)thio]-4-pyrimidinol]
7.50 | C[C@H](CO)Nc1nc(SCc2cccc(F)c2)nc(O)c1F [Example 33, 2-[(3-fluorobenzyl)thio]-5-fluoro-6-{[(1R)-2-hydroxy-1-methylethyl]amino}pyrimidin-4-ol]
